Test results from patent publication US20230391768A2, “IMIDAZOPYRIDINE DERIVATIVES AND AZA-IMIDAZOPYRIDINE DERIVATIVES AS JANUS KINASE 2 INHIBITORS AND USES THEREOF” (Dana-Farber Cancer Institute, Inc., priority 2018, published 2023).

Legend:
Test in all cases: KINOMEscan
Format in all cases: binding
[1] = target: ABL1(E255K)-phosphorylated (Homo sapiens (Human), UniProt P00519, E255K); conditions: read-out: percent of control
Experimental: (§1) In vitro profiling of Compound I-2 (1 μM) was performed using the DiscoveRx KINOMEscan® platform.

[2] = target: ABL1(F317L)-phosphorylated (Homo sapiens (Human), UniProt P00519, F317L); conditions: read-out: percent of control
Experimental: as §1

[3] = target: ABL1(Q252H)-nonphosphorylated (Homo sapiens (Human), UniProt P00519, Q252H); conditions: read-out: percent of control
Experimental: as §1

ANKK1 = ANKK1 (Homo sapiens (Human), UniProt Q8NFD2); conditions: read-out: percent of control
Experimental: as §1

CAMK2G = CAMK2G (Homo sapiens (Human), UniProt Q13555); conditions: read-out: percent of control
Sequence of CAMK2G (Q13555 whole entry): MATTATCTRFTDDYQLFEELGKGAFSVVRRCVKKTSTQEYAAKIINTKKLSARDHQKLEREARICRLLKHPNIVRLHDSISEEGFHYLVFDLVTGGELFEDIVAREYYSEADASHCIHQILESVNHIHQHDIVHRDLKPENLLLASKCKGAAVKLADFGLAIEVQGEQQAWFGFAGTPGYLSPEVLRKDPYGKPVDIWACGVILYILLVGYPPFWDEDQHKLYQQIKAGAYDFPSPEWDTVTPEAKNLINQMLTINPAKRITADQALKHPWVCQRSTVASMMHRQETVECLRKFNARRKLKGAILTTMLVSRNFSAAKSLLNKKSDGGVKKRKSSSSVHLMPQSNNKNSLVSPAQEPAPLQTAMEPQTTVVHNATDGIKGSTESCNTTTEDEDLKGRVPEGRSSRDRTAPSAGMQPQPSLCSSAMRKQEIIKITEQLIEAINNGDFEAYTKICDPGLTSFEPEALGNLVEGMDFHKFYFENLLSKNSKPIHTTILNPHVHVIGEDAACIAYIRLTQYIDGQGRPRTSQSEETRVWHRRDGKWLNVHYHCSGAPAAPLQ
Experimental: as §1

CDK4-cyclinD3 = CDK4-cyclinD3 (Homo sapiens (Human), UniProt P11802); conditions: read-out: percent of control
Sequence of CDK4-cyclinD3 (P11802 whole entry): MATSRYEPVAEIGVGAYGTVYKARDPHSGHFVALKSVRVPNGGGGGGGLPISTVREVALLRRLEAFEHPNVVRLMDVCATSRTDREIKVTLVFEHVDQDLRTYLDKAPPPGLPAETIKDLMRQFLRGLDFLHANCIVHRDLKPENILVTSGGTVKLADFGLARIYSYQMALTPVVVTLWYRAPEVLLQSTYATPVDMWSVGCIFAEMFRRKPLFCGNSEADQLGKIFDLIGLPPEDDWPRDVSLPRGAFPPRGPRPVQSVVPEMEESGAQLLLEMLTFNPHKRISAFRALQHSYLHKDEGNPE
Sequence of CDK4-cyclinD3 (P30281 whole entry partner): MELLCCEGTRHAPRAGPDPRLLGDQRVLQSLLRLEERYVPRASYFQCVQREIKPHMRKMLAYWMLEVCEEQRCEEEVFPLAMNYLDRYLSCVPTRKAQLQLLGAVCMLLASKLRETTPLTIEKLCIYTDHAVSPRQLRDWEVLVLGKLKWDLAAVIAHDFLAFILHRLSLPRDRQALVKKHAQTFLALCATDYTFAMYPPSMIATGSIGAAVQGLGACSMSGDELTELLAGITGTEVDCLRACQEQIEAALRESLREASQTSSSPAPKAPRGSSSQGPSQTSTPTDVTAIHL
Experimental: as §1

CLK1 = CLK1 (Homo sapiens (Human), UniProt P49759); conditions: read-out: percent of control
Experimental: as §1

CLK4 = CLK4 (Homo sapiens (Human), UniProt Q9HAZ1); conditions: read-out: percent of control
Experimental: as §1

CSK = CSK (Homo sapiens (Human), UniProt P41240); conditions: read-out: percent of control
Experimental: as §1

CSNK1G3 = CSNK1G3 (Homo sapiens (Human), UniProt Q9Y6M4); conditions: read-out: percent of control
Sequence of CSNK1G3 (Q9Y6M4 whole entry): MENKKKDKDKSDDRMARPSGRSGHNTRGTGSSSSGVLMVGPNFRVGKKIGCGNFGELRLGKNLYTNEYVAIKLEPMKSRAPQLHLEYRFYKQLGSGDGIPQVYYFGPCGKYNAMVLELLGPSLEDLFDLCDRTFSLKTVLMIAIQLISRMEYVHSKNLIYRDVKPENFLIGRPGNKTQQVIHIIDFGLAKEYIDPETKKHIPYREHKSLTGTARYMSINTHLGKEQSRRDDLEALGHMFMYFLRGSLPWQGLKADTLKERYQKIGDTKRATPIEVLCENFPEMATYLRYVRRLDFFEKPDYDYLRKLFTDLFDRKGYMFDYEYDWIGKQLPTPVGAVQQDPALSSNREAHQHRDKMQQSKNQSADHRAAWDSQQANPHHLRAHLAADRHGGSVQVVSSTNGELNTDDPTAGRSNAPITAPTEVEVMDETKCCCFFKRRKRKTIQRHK
Experimental: as §1

DCAMKL1 = DCAMKL1 (Homo sapiens (Human), UniProt O15075); conditions: read-out: percent of control
Sequence of DCAMKL1 (O15075 whole entry, looked up): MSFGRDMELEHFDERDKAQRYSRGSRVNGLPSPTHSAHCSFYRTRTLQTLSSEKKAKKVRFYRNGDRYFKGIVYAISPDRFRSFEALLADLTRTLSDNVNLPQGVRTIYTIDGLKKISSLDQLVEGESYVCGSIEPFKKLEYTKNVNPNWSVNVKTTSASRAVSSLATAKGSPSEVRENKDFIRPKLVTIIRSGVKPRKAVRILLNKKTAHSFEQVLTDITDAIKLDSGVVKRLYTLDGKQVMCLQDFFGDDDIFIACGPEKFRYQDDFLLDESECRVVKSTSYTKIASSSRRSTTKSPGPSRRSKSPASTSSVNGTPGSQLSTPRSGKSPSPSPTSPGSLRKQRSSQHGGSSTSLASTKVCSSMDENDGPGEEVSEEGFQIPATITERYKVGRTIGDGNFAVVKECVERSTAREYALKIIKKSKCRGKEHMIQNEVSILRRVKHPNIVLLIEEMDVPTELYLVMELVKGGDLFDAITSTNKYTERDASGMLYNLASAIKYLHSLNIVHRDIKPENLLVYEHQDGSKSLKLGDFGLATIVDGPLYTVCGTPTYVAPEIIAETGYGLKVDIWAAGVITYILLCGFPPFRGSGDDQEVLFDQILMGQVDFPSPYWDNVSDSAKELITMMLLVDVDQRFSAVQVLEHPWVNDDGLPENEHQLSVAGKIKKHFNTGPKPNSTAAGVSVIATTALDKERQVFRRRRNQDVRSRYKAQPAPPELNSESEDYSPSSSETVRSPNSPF
Experimental: as §1

DYRK1B = DYRK1B (Homo sapiens (Human), UniProt Q9Y463); conditions: read-out: percent of control
Experimental: as §1

EGFR(L747-T751del,Sins) = conditions: 1 μM
Experimental: as §1

GFR(L747-S752del, P753S) = target: GFR(L747-S752del, P753S (Homo sapiens (Human), UniProt P00533, DEL747-752/P753S)); conditions: read-out: percent of control
Experimental: as §1

KIT-autoinhibited = KIT-autoinhibited (Homo sapiens (Human), UniProt P10721); conditions: read-out: percent of control
Experimental: as §1

LCK = LCK (Homo sapiens (Human), UniProt P06239); conditions: read-out: percent of control
Experimental: as §1

LRRK2(G2019S) = LRRK2(G2019S) (Homo sapiens (Human), UniProt Q5S007, G2019S); conditions: read-out: percent of control
Experimental: as §1

MAP3K4 = MAP3K4 (Homo sapiens (Human), UniProt Q9Y6R4); conditions: read-out: percent of control
Experimental: as §1

MARK1 = MARK1 (Homo sapiens (Human), UniProt Q9P0L2); conditions: read-out: percent of control
Experimental: as §1

MET(M1250T) = MET(M1250T) (Homo sapiens (Human), UniProt P08581, M1250T); conditions: read-out: percent of control
Experimental: as §1

MYLK = MYLK (Homo sapiens (Human), UniProt Q15746); conditions: read-out: percent of control
Experimental: as §1

MYO3A = MYO3A (Homo sapiens (Human), UniProt Q8NEV4); conditions: read-out: percent of control
Experimental: as §1

NIM1 = NIM1 (Homo sapiens (Human), UniProt Q8IY84); conditions: read-out: percent of control
Sequence of NIM1 (Q8IY84 whole entry): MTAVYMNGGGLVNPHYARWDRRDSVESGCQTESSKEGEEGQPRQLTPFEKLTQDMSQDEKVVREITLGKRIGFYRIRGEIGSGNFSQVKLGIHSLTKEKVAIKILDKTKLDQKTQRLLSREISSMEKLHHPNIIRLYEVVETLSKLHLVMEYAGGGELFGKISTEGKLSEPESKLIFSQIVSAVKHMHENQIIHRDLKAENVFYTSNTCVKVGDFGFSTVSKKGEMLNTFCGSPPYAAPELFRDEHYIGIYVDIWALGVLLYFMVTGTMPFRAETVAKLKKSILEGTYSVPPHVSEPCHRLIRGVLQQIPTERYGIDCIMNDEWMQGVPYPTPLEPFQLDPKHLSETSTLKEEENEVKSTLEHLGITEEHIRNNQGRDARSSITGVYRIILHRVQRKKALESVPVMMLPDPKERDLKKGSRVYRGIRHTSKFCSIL
Experimental: as §1

PFTK1 = PFTK1 (Homo sapiens (Human), UniProt O94921); conditions: read-out: percent of control
Experimental: as §1

PIK3CA(E545A) = PIK3CA(E545A) (Homo sapiens (Human), UniProt P42336, E545A); conditions: read-out: percent of control
Experimental: as §1

PIK3CA(Q546K) = PIK3CA(Q546K) (Homo sapiens (Human), UniProt P42336, Q546K); conditions: read-out: percent of control
Experimental: as §1

PKNB (M.tuberculosis) = PKNB (M.tuberculosis) (Mycobacterium tuberculosis (strain ATCC 25618 / H37Rv), UniProt P9WI81); conditions: read-out: percent of control
Experimental: as §1

RET (M918T) = RET (M918T) (Homo sapiens (Human), UniProt P07949, M918T); conditions: read-out: percent of control
Sequence of RET (M918T) (P07949 29-1114 M918T): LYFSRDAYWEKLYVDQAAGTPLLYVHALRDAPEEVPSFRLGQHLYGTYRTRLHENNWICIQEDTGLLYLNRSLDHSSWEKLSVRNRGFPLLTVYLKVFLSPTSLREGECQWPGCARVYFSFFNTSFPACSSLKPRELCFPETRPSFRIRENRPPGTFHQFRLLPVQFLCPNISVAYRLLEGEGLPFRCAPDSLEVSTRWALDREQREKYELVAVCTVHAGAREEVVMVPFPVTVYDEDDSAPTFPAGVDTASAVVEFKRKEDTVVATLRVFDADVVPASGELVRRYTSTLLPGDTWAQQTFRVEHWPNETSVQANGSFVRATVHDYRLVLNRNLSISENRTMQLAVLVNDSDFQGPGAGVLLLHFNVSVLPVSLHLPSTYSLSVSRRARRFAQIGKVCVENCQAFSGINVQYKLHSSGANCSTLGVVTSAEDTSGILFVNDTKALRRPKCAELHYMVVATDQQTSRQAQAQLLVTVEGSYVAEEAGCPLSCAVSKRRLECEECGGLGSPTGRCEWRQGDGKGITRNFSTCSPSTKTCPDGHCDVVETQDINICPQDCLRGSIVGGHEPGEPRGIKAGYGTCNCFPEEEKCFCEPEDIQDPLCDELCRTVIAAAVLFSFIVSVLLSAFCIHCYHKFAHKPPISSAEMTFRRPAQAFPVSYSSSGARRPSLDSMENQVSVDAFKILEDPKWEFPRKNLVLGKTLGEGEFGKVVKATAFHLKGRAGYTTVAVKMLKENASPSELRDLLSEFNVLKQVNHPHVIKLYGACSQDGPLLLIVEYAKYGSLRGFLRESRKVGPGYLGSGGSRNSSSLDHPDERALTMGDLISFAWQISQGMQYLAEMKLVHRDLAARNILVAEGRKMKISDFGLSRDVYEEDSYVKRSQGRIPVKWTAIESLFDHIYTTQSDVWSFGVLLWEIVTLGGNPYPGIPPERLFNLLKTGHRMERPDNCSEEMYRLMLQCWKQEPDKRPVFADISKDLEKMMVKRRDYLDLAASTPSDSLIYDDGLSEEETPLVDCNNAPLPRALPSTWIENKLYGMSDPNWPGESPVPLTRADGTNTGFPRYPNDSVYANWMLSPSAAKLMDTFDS
Experimental: as §1

ROCK2 = ROCK2 (Homo sapiens (Human), UniProt O75116); conditions: read-out: percent of control
Experimental: as §1

[4] = target: RPS6KA4 (Kin.Dom.1-N-terminal) (Homo sapiens (Human), UniProt O75676); conditions: read-out: percent of control
Experimental: as §1

[5] = target: RPS6KA5 (Kin.Dom.2-C-terminal) (Homo sapiens (Human), UniProt O75582); conditions: read-out: percent of control
Experimental: as §1

SGK2 = SGK2 (Homo sapiens (Human), UniProt Q9HBY8); conditions: read-out: percent of control
Experimental: as §1

SIK2 = SIK2 (Homo sapiens (Human), UniProt Q9H0K1); conditions: read-out: percent of control
Experimental: as §1

STK39 = STK39 (Homo sapiens (Human), UniProt Q9UEW8); conditions: read-out: percent of control
Experimental: as §1

SgK110 = SgK110 (Homo sapiens (Human), UniProt P0C264); conditions: read-out: percent of control
Experimental: as §1

TAOK1 = TAOK1 (Homo sapiens (Human), UniProt Q7L7X3); conditions: read-out: percent of control
Sequence of TAOK1 (Q7L7X3 whole entry): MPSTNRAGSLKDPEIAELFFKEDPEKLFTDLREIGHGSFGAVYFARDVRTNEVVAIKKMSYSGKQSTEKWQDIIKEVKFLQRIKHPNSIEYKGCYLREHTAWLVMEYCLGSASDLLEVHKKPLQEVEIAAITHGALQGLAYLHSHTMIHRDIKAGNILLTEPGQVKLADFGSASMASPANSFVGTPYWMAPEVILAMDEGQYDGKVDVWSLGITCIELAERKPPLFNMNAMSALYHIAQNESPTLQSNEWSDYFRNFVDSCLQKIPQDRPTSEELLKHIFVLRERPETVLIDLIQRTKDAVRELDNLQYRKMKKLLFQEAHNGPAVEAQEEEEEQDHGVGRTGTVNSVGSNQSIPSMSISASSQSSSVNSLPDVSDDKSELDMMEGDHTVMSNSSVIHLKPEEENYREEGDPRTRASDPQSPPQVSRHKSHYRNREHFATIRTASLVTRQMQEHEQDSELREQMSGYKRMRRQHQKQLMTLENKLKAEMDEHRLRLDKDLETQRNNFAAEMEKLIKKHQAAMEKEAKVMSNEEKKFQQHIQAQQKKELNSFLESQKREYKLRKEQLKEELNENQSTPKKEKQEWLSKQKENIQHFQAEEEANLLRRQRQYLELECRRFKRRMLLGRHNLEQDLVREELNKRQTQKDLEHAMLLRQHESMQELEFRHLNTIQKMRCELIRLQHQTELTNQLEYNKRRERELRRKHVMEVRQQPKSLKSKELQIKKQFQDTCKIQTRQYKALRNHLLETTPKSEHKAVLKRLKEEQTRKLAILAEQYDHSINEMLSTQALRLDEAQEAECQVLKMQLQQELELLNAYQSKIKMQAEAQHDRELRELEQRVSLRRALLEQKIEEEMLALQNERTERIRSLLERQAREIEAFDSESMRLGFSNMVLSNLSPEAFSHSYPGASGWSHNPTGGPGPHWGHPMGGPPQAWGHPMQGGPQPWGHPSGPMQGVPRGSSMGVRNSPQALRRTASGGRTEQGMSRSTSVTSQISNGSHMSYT
Experimental: as §1

VRK2 = VRK2 (Homo sapiens (Human), UniProt Q86Y07); conditions: read-out: percent of control
Experimental: as §1

| Compound | remaining binding at 1 µM [1] [%] | remaining binding at 1 µM [2] [%] | remaining binding at 1 µM [3] [%] | remaining binding at 1 µM (ANKK1) [%] | remaining binding at 1 µM (CAMK2G) [%] | remaining binding at 1 µM (CDK4-cyclinD3) [%] | remaining binding at 1 µM (CLK1) [%] | remaining binding at 1 µM (CLK4) [%] | remaining binding at 1 µM (CSK) [%] | remaining binding at 1 µM (CSNK1G3) [%] | remaining binding at 1 µM (DCAMKL1) [%] | remaining binding at 1 µM (DYRK1B) [%] | percent of control (EGFR(L747-T751del,Sins)) [%] | remaining binding at 1 µM (GFR(L747-S752del, P753S)) [%] | remaining binding at 1 µM (KIT-autoinhibited) [%] | remaining binding at 1 µM (LCK) [%] | remaining binding at 1 µM (LRRK2(G2019S)) [%] | remaining binding at 1 µM (MAP3K4) [%] | remaining binding at 1 µM (MARK1) [%] | remaining binding at 1 µM (MET(M1250T)) [%] | other results |
| --- | --- | --- | --- | --- | --- | --- | --- | --- | --- | --- | --- | --- | --- | --- | --- | --- | --- | --- | --- | --- | --- |
| CCN1CCN(Cc2cc(NC(=O)c3ccc(C)c(-c4ccc5nc(NC(=O)C6CC6)cn5c4)c3)cc(C(F)(F)F)c2)CC1 [Compound I-6, 3-(2-(cyclopropanecarboxamido)imidazo[1,2-a]pyridin-6-yl)-N-(3-((4-ethylpiperazin-1-yl)methyl)-5-(trifluoromethyl)phenyl)-4-methylbenzamide] | 0.65 | 1.3 | 0.15 | 100 | 95 | 64 | 20 | 28 | 21 | 92 | 84 | 87 | 12 | 12 | 85 | 0.1 | 100 | 81 | 77 | 42 | remaining binding at 1 µM (MYLK): 79%; remaining binding at 1 µM (MYO3A): 66%; remaining binding at 1 µM (NIM1): 88%; remaining binding at 1 µM (PFTK1): 2.4%; remaining binding at 1 µM (PIK3CA(E545A)): 100%; remaining binding at 1 µM (PIK3CA(Q546K)): 94%; remaining binding at 1 µM (PKNB (M.tuberculosis)): 91%; remaining binding at 1 µM (RET (M918T)): 0%; remaining binding at 1 µM (ROCK2): 94%; remaining binding at 1 µM [4]: 66%; remaining binding at 1 µM [5]: 98%; remaining binding at 1 µM (SGK2): 76%; remaining binding at 1 µM (SIK2): 100%; remaining binding at 1 µM (STK39): 93%; remaining binding at 1 µM (SgK110): 57%; remaining binding at 1 µM (TAOK1): 4.5%; remaining binding at 1 µM (VRK2): 92% |
| CCN1CCN(Cc2cc(NC(=O)c3ccc(C)c(-c4ccc5nc(NC(=O)C6CC6)cn5n4)c3)cc(C(F)(F)F)c2)CC1 [Compound I-2, 3-(2-(cyclopropanecarboxamido)imidazo[1,2-b]pyridazin-6-yl)-N-(3-((4-ethylpiperazin-1-yl)methyl)-5-(trifluoromethyl)phenyl)-4-methylbenzamide] | 0.5 | 1.1 | 0 | 100 | 94 | 41 | 7.9 | 11 | 39 | 96 | 90 | 62 | 29 | 19 | 79 | 0 | 84 | 89 | 91 | 9.9 | remaining binding at 1 µM (MYLK): 65%; remaining binding at 1 µM (MYO3A): 85%; remaining binding at 1 µM (NIM1): 99%; remaining binding at 1 µM (PFTK1): 0.35%; remaining binding at 1 µM (PIK3CA(E545A)): 91%; remaining binding at 1 µM (PIK3CA(Q546K)): 76%; remaining binding at 1 µM (PKNB (M.tuberculosis)): 78%; remaining binding at 1 µM (RET (M918T)): 0.05%; remaining binding at 1 µM (ROCK2): 82%; remaining binding at 1 µM [4]: 50%; remaining binding at 1 µM [5]: 100%; remaining binding at 1 µM (SGK2): 87%; remaining binding at 1 µM (SIK2): 100%; remaining binding at 1 µM (STK39): 74%; remaining binding at 1 µM (SgK110): 75%; remaining binding at 1 µM (TAOK1): 3.9%; remaining binding at 1 µM (VRK2): 88% |
